In US20140343049A1, “DIHYDROFURAN DERIVATIVES AS INSECTICIDAL COMPOUNDS” (SYNGENTA PARTICIPATIONS AG, priority 2011, published 2014):

Columns and labels:
Type in all cases: in vivo
[1] = test system: Plutella xylostella (diamond back moth); experiment: Plutella xylostella L2 larvae test on artificial diet; conditions: 144 h, 200 ppm (concentration in well 18 ppm), 6 days, larval mortality and growth regulation
Experimental: (§1) 24-well microtiter plate (MTP) with artificial diet was treated with test solutions at an application rate of 200 ppm (concentration in well 18 ppm) by pipetting. After drying, the MTPs were infested with L2 larvae (7-12 per well). After an incubation period of 6 days, samples were checked for larval mortality and growth regulation.

[2] = test system: Heliothis virescens (tobacco budworm); experiment: Heliothis virescens egg test on artificial diet; conditions: 96 h, 200 ppm (concentration in well 18 ppm), eggs 0-24 h old, 4 days, egg mortality, larval mortality, growth regulation
Experimental: Eggs (0-24 h old) were placed in 24-well microtiter plate on artificial diet and treated with test solutions at an application rate of 200 ppm (concentration in well 18 ppm) by pipetting. After an incubation period of 4 days, samples were checked for egg mortality, larval mortality, and growth regulation.

[3] = test system: Spodoptera littoralis (Egyptian cotton leafworm); experiment: Spodoptera littoralis cotton leaf disc spray test; conditions: foliar, 72 h, cotton leaf discs sprayed at 200 ppm, 5 L1 larvae, mortality, feeding behavior, growth regulation 3 days after treatment
Excerpt: Cotton leaf discs were placed on agar in a 24-well microtiter plate and sprayed with test solutions at an application rate of 200 ppm. After drying, the leaf discs were infested with 5 L1 larvae. The samples were checked for mortality, feeding behavior, and growth regulation 3 days after treatment (DAT).

[4] = test system: Diabrotica balteata (corn root worm); experiment: Diabrotica balteata L2 larvae test on artificial diet; conditions: 120 h, 200 ppm (concentration in well 18 ppm), 5 days, larval mortality and growth regulation
Experimental: as §1, with “A 24-well” for “24-well”, “(6-10” for “(7-12”, “5” for “6”
as §1, with “A 24-well” for “24-well”, “12.5” for “200”, “MTP's” for “MTPs”, “(6-10” for “(7-12”, “5” for “6”

Compound | pest or weed control at 200 ppm [1] [%] | pest or weed control at 200 ppm [2] [%] | pest or weed control at 200 ppm [3] [%] | pest or weed control at 200 ppm [4] [%]
CCCCNC(=O)c1ccc(C2=CC(c3cc(Cl)cc(Cl)c3)(C(F)(F)F)OC2)cc1C (stereo not drawn) [Compound A5] | ≥ 80 | ≥ 80 | ≥ 80 | ≥ 80
Cc1cc(C2=CC(c3cc(Cl)cc(Cl)c3)(C(F)(F)F)OC2)ccc1C(=O)NCc1ccccc1 (stereo not drawn) [Compound A8] | – | – | – | ≥ 80
Cc1cc(C2=CC(c3cc(Cl)cc(Cl)c3)(C(F)(F)F)OC2)ccc1C(=O)NC1CCCCC1C (stereo not drawn) [Compound A32] | ≥ 80 | – | – | ≥ 80
Cc1cc(C2=CC(c3cc(Cl)cc(Cl)c3)(C(F)(F)F)OC2)ccc1C(=O)NCCc1ccccc1 (stereo not drawn) [Compound A39] | ≥ 80 | ≥ 80 | – | ≥ 80
Cc1cc(C2=CC(c3cc(Cl)cc(Cl)c3)(C(F)(F)F)OC2)ccc1C(=O)NCCc1cccs1 (stereo not drawn) [Compound A41] | ≥ 80 | – | – | ≥ 80
Cc1cc(C2=CC(c3cc(Cl)cc(Cl)c3)(C(F)(F)F)OC2)ccc1C(=O)NCCOc1ccccc1 (stereo not drawn) [Compound A42] | – | ≥ 80 | ≥ 80 | ≥ 80
Cc1cc(C2=CC(c3cc(Cl)cc(Cl)c3)(C(F)(F)F)OC2)ccc1C(=O)NCc1ccccc1C(F)(F)F (stereo not drawn) [Compound A48] | – | – | – | ≥ 80
Cc1cc(C2=CC(c3cc(Cl)cc(Cl)c3)(C(F)(F)F)OC2)ccc1C(=O)NCc1ccccc1N1CCCCC1 (stereo not drawn) [Compound A50] | – | – | – | ≥ 80
Cc1cc(C2=CC(c3cc(Cl)cc(Cl)c3)(C(F)(F)F)OC2)ccc1C(=O)NC1CCN(Cc2ccccc2)C1 (stereo not drawn) [Compound A53] | – | – | ≥ 80 | ≥ 80
Cc1cc(C2=CC(c3cc(Cl)cc(Cl)c3)(C(F)(F)F)OC2)ccc1C(=O)NCCN1CCN(Cc2ccccc2)CC1 (stereo not drawn) [Compound A54] | – | ≥ 80 | – | ≥ 80
Cc1cc(C2=CC(c3cc(Cl)cc(Cl)c3)(C(F)(F)F)OC2)ccc1C(=O)Nc1ccc(-n2cccc2)cc1 (stereo not drawn) [Compound A61] | – | – | – | ≥ 80
Cc1cc(C2=CC(c3cc(Cl)cc(Cl)c3)(C(F)(F)F)OC2)ccc1C(=O)Nc1ccc2c(C)cc(=O)oc2c1 (stereo not drawn) [Compound A65] | – | – | – | ≥ 80
Cc1cc(C2=CC(c3cc(Cl)cc(Cl)c3)(C(F)(F)F)OC2)ccc1C(=O)Nc1ccc(S(=O)(=O)N(C)C)cc1 (stereo not drawn) [Compound A66] | – | ≥ 80 | – | ≥ 80
Cc1cc(NC(=O)c2ccc(C3=CC(c4cc(Cl)cc(Cl)c4)(C(F)(F)F)OC3)cc2C)n(C)n1 (stereo not drawn) [Compound A67] | ≥ 80 | ≥ 80 | ≥ 80 | –
Cc1cc(O)nc(NC(=O)c2ccc(C3=CC(c4cc(Cl)cc(Cl)c4)(C(F)(F)F)OC3)cc2C)n1 (stereo not drawn) [Compound A69] | ≥ 80 | ≥ 80 | – | ≥ 80
Cc1cc(C2=CC(c3cc(Cl)cc(Cl)c3)(C(F)(F)F)OC2)ccc1C(=O)Nc1ncnc2[nH]cnc12 (stereo not drawn) [Compound A72] | – | – | ≥ 80 | –
Cc1nnc(NC(=O)c2ccc(C3=CC(c4cc(Cl)cc(Cl)c4)(C(F)(F)F)OC3)cc2C)s1 (stereo not drawn) [Compound A75] | – | – | – | ≥ 80
O=C(NCC(F)(F)F)c1ccc(C2=CC(c3cc(Cl)cc(Cl)c3)(C(F)(F)F)OC2)nc1 (stereo not drawn) [Compound B1] | ≥ 80 | – | – | –
CCNC(=O)c1ccc(C2=CC(c3cc(Cl)cc(Cl)c3)(C(F)(F)F)OC2)nc1 (stereo not drawn) [Compound B2] | – | – | – | ≥ 80
O=C(CNC(=O)c1ccc(C2=CC(c3cc(Cl)cc(Cl)c3)(C(F)(F)F)OC2)nc1)NCC(F)(F)F (stereo not drawn) [Compound B5] | – | ≥ 80 | – | –
O=C(NCCC(F)(F)F)c1ccc(C2=CC(c3cc(Cl)cc(Cl)c3)(C(F)(F)F)OC2)nc1 (stereo not drawn) [Compound B6] | – | – | – | ≥ 80

Compound | pest or weed control at 200 ppm [1] [%] | pest or weed control at 200 ppm [2] [%] | pest or weed control at 200 ppm [3] [%] | pest or weed control at 200 ppm [4] [%]
CCC(C)NC(=O)c1ccc(C2=CC(c3cc(Cl)cc(Cl)c3)(C(F)(F)F)OC2)nc1 (stereo not drawn) [Compound B7] | ≥ 80 | – | – | –
O=C(NCC1CCCO1)c1ccc(C2=CC(c3cc(Cl)cc(Cl)c3)(C(F)(F)F)OC2)nc1 (stereo not drawn) [Compound B8] | ≥ 80 | – | – | –
COc1ccc(CNC(=O)c2ccc(C3=CC(c4cc(Cl)cc(Cl)c4)(C(F)(F)F)OC3)nc2)cc1 (stereo not drawn) [Compound B12] | – | – | – | ≥ 80
O=C(NCc1ccc(Cl)nc1)c1ccc(C2=CC(c3cc(Cl)cc(Cl)c3)(C(F)(F)F)OC2)nc1 (stereo not drawn) [Compound B14] | – | ≥ 80 | – | –
CC1(NC(=O)c2ccc(C3=CC(c4cc(Cl)cc(Cl)c4)(C(F)(F)F)OC3)nc2)CSC1 (stereo not drawn) [Compound B19] | – | – | – | ≥ 80
O=C(NC1CCC1)c1ccc(C2=CC(c3cc(Cl)cc(Cl)c3)(C(F)(F)F)OC2)nc1 (stereo not drawn) [Compound B23] | ≥ 80 | – | – | –
Cc1nc(C2=CC(c3cc(Cl)cc(Cl)c3)(C(F)(F)F)OC2)ccc1C(=O)NCCC(F)(F)F (stereo not drawn) [Compound C6] | ≥ 80 | – | ≥ 80 | ≥ 80
Cc1nc(C2=CC(c3cc(Cl)cc(Cl)c3)(C(F)(F)F)OC2)ccc1C(=O)NCC1CCCO1 (stereo not drawn) [Compound C8] | – | ≥ 80 | ≥ 80 | ≥ 80
Cc1nc(C2=CC(c3cc(Cl)cc(Cl)c3)(C(F)(F)F)OC2)ccc1C(=O)Nc1cccc(F)c1 (stereo not drawn) [Compound C15] | ≥ 80 | ≥ 80 | ≥ 80 | –
Cc1cc(NC(=O)c2ccc(C3=CC(c4cc(Cl)cc(Cl)c4)(C(F)(F)F)OC3)nc2C)n(C)n1 (stereo not drawn) [Compound C16] | ≥ 80 | ≥ 80 | – | –
CSCC(C)(C)NC(=O)c1ccc(C2=CC(c3cc(Cl)cc(Cl)c3)(C(F)(F)F)OC2)nc1C (stereo not drawn) [Compound C18] | – | – | ≥ 80 | ≥ 80
CCCCNC(=O)c1ccc(C2=CC(c3cc(Cl)cc(Cl)c3)(C(F)(F)F)OC2=O)cc1C (stereo not drawn) [Compound E3] | ≥ 80 | – | – | –
Cc1cc(C2=CC(c3cc(Cl)cc(Cl)c3)(C(F)(F)F)OC2=O)ccc1C(=O)NCCC(F)(F)F (stereo not drawn) [Compound E6] | ≥ 80 | – | ≥ 80 | –
Cc1cc(C2=CC(c3cc(Cl)cc(Cl)c3)(C(F)(F)F)OC2=O)ccc1C(=O)NCc1ccccc1 (stereo not drawn) [Compound E8] | – | – | ≥ 80 | –
Cc1cc(C2=CC(c3cc(Cl)cc(Cl)c3)(C(F)(F)F)OC2=O)ccc1C(=O)NCc1ccccc1F (stereo not drawn) [Compound E9] | ≥ 80 | – | – | –
COc1ccc(CNC(=O)c2ccc(C3=CC(c4cc(Cl)cc(Cl)c4)(C(F)(F)F)OC3=O)cc2C)cc1 (stereo not drawn) [Compound E11] | ≥ 80 | – | – | –
Cc1cc(C2=CC(c3cc(Cl)cc(Cl)c3)(C(F)(F)F)OC2=O)ccc1C(=O)NCc1ccccn1 (stereo not drawn) [Compound E13] | ≥ 80 | – | ≥ 80 | ≥ 80
Cc1csc(NC(=O)c2ccc(C3=CC(c4cc(Cl)cc(Cl)c4)(C(F)(F)F)OC3=O)cc2C)n1 (stereo not drawn) [Compound E15] | – | – | ≥ 80 | ≥ 80
Cc1cc(C2=CC(c3cc(Cl)cc(Cl)c3)(C(F)(F)F)OC2=O)ccc1C(=O)NC1CSC1 (stereo not drawn) [Compound E17] | – | – | – | ≥ 80
Cc1cc(C2=CC(c3cc(Cl)cc(Cl)c3)(C(F)(F)F)OC2=O)ccc1C(=O)NC1C[S+]([O-])C1 (stereo not drawn) [Compound E19] | – | – | ≥ 80 | –
